Legend:
FLJ10889-derived protein = target: T1, FLJ10889-derived protein (Homo sapiens, UniProt Q7L7V1, A496G/L459S/P686L/V123M); assay: Biacore S51 surface plasmon resonance binding to FLJ10889-derived protein
T1 construct: made in house; host or cells: wheat germ cell-free synthesis system (PROTEIOS, Toyobo)
T1 sequence (Q7L7V1 1-743 V123M/L459S/A496G/P686L): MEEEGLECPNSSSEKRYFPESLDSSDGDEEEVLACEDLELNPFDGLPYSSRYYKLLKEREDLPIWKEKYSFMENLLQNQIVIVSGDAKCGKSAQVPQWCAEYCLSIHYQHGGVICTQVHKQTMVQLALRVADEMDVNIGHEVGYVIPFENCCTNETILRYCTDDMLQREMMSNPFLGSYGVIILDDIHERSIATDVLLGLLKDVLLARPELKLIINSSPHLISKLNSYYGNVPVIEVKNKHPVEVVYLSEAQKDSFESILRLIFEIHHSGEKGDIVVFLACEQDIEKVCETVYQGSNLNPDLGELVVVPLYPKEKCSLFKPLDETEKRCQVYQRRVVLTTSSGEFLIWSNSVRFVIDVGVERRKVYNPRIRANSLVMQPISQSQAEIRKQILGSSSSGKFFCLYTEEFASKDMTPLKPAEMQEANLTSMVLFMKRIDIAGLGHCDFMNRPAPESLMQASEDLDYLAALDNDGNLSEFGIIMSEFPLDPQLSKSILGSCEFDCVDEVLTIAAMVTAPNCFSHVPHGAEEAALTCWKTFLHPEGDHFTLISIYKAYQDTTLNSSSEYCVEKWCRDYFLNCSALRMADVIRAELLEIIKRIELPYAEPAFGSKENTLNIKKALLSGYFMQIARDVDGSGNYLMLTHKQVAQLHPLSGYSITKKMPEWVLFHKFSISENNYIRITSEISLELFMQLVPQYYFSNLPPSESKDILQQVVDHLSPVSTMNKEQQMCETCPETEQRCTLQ
Description: (§1) A desired gene of a human full-length cDNA clone was BP-reacted with the PCR cloning vector Gateway pDONR201 using the Invitrogen Gateway system per the kit protocol to yield an entry vector. […]
(§2) The surface of the CM5 sensor chip for S51 commercially available from Biacore Company was subjected to an NTA treatment with 1 M EDC, 1.33 M NHS and 16 mg/ml AB-NTA (pH 9.2) to prepare an NTA sensor chip for S51. […] A correction for the effect of DMSO contained in the compound solutions and running buffer (solvent correction) was performed on the basis of measured results from separately prepared solutions mimicking the running buffer, and containing 3.8 to 5.1% of DMSO (8 points). The compound characterization assay program for Biacore S51 was performed to measure the interactions between immobilized ligands (proteins) and analytes (compounds; 62.5 μM to 0.244 μM), and the results were analyzed using a dedicated software program. […]

FLJ11045-derived protein = target: T2, FLJ11045-derived protein (Homo sapiens, UniProt Q9BXT8, E1380K); assay: Biacore S51 surface plasmon resonance binding to FLJ11045-derived protein
T2 construct: made in house; host or cells: wheat germ cell-free synthesis system (PROTEIOS, Toyobo)
T2 sequence (Q9BXT8 949-1581 isoform Q9BXT8-4 E1338K): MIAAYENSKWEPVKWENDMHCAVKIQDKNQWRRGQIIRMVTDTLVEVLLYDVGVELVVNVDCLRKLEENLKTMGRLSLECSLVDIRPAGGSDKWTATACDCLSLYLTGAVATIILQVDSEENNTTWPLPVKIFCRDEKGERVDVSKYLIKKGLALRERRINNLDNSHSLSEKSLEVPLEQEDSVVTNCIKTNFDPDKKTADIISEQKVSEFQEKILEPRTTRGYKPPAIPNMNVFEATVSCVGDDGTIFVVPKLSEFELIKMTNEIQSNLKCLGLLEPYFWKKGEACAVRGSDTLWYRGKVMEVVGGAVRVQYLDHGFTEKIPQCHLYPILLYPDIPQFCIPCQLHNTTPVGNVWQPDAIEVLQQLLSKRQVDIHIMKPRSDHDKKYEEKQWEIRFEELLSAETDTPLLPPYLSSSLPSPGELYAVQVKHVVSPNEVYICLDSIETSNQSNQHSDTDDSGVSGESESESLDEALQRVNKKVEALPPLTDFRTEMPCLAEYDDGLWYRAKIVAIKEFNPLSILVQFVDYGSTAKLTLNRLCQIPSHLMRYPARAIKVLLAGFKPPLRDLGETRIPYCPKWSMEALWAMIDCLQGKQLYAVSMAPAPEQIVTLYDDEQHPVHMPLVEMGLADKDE
Source text: A desired gene of a human full-length cDNA clone was BP-reacted with the PCR cloning vector Gateway pDONR201 using the Invitrogen Gateway system per the kit protocol to yield an entry vector. As the destination vector for the Gateway system, a Gateway cassette having a Gateway recombinant sequence was introduced to allow the utilization of the Gateway system on the basis of pEU3-NII (Toyobo), which matches with a cell-free protein synthesis system (PROTEIOS) of Toyobo Co., Ltd., which employs a wheat germ extract, and a double tag destination vector modified using the PCR method to allow the expression of a peptide having a histidine tag and a FLAG tag sequence in the N-terminal region of the expressed protein was prepared.
The prepared double tag destination vector and entry vector were […] using the Invitrogen Gateway system per the protocol and the Escherichia coli competent cell DH5α was transformed therewith; a clone incorporating the expression vector was selected. A plasmid was prepared from the obtained clone using the QIAfilter Midi kit (QUIAGEN) per the kit protocol. The plasmid obtained was subjected to phenol/chloroform treatment per the protocol for PROTEIOS (Toyobo) to inactivate the RNase to yield a purified expression plasmid.
A recombinant protein was synthesized using a cell-free protein synthesis system (PROTEIOS) of Toyobo Co., Ltd., which employs a wheat germ extract. Subsequently, mRNA was prepared from the expression plasmid acquired by the method described in section 1 above per the protocol for PROTEIOS. With 20 μg of the mRNA acquired, a protein was synthesized per the protocol for PROTEIOS using two wells of a 96-well microtiter plate. The protein synthesized was subjected to high-speed centrifugation, the precipitate was removed, and the resulting soluble fraction was purified using ANTI-FLAG M2 Affinity Gel (SIGMA Company) having an anti-FLAG tag antibody immobilized hereto per the protocol, to yield a purified protein.
as §2

[1] = test system: mutant SOD-transgenic mouse showing ALS-like symptoms; conditions: intraperitoneally administered; cited from earlier work
FLJ14583-derived protein = target: T3, FLJ14583-derived protein (Homo sapiens, UniProt Q12816); assay: Biacore S51 surface plasmon resonance binding to FLJ14583-derived protein
T3 construct: made in house; host or cells: wheat germ cell-free synthesis system (PROTEIOS, Toyobo)
T3 sequence (Q12816 1-706 isoform Q12816-2): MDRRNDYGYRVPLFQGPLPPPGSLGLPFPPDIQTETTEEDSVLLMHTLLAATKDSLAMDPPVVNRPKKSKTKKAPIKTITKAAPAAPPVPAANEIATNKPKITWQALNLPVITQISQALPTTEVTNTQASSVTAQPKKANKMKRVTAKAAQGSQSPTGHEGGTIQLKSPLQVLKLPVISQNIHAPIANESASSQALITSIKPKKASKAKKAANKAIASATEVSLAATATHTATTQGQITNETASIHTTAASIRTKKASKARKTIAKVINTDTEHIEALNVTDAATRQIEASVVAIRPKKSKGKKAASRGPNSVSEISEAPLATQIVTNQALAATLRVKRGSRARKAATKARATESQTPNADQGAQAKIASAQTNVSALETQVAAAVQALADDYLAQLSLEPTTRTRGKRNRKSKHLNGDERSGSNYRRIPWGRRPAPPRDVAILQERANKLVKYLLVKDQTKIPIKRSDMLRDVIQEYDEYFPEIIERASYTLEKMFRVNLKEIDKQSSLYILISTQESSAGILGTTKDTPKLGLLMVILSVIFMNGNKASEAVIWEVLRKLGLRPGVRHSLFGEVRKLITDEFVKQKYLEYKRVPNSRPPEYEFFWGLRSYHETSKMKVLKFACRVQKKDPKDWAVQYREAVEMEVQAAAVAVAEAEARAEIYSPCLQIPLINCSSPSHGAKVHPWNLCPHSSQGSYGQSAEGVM
Description: as §1, §2

FLJ10335-derived protein = target: T4, FLJ10335-derived protein (Homo sapiens, UniProt Q9NW38, S77P); assay: Biacore S51 surface plasmon resonance binding to FLJ10335-derived protein
T4 construct: made in house; host or cells: wheat germ cell-free synthesis system (PROTEIOS, Toyobo)
T4 sequence (Q9NW38 1-375 S77P): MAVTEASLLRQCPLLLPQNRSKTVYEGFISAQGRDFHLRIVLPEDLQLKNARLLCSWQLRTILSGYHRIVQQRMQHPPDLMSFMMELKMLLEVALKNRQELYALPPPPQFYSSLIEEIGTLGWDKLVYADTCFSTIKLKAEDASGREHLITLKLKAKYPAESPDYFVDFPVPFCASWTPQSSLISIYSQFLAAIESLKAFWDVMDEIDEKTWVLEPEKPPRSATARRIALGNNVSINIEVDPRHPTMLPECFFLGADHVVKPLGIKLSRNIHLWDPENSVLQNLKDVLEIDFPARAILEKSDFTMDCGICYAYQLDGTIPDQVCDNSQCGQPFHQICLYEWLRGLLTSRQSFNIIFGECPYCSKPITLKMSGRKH
Description: as §1, §2

FLJ12502-derived protein = target: T5, FLJ12502-derived protein (Homo sapiens, UniProt Q7Z3D6); assay: Biacore S51 surface plasmon resonance binding to FLJ12502-derived protein
T5 construct: made in house; host or cells: wheat germ cell-free synthesis system (PROTEIOS, Toyobo)
T5 sequence (Q7Z3D6 29-616): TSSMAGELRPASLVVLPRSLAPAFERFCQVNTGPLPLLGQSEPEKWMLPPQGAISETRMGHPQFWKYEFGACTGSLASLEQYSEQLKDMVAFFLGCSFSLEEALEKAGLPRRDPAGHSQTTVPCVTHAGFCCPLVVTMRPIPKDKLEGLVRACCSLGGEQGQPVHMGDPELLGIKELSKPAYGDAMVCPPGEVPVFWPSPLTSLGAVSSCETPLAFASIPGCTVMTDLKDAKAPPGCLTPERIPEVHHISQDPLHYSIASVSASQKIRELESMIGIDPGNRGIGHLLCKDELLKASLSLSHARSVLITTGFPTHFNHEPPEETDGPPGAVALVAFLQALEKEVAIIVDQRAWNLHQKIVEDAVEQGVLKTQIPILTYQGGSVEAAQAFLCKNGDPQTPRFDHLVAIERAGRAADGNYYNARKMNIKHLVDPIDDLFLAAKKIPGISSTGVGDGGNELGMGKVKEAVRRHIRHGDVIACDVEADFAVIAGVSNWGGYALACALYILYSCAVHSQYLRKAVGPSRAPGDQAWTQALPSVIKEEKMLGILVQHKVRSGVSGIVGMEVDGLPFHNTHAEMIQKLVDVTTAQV
Description: as §1, §2

Q: For CC[C@@]1(O)C[C@H](O[C@H]2C[C@H](N(C)C)[C@H](O[C@H]3C[C@H](O)[C@H](O[C@H]4CCC(=O)[C@H](C)O4)[C@H](C)O3)[C@H](C)O2)c2c(cc3c(c2O)C(=O)c2c(O)cccc2C3=O)[C@H]1C(=O)OC [aclarubicin], which “interaction with the protein (binding level dose-proportional, saturated at high doses)” value (“interaction with the protein” below) (FLJ10889-derived protein) is on record?
A: interact specifically

Q: Which Kd (FLJ11045-derived protein; Biacore S51, immobilized FLJ11045-derived protein, analyte 62.5 μM to 0.244 μM, read-out: binding dissociation constant Kd) does the source give for CC1=C(C(=O)O)N2C(=O)[C@@H](NC(=O)[C@H](N)c3ccc(O)cc3)[C@H]2SC1 [cefadroxil] here?
A: 11.5 µM

Q: What about the “interaction with the protein” value (FLJ11045-derived protein; FLJ11045-derived protein, Biacore S51) of the same compound?
A: interact specifically

Q: With CO/N=C(\C(=O)N[C@@H]1C(=O)N2C(C(=O)O)=C(CSc3nc(=O)c(=O)[nH]n3C)CS[C@H]12)c1csc(N)n1 [ceftriaxone] as the compound, how does the “expression of GLT1 in the spinal cord” value [1] read?
A: increased

Q: And the muscle strength [1]?
A: increase in the muscle strength

Q: And the neuron number [1]?
A: recovery of neuron number

Q: With Cc1onc(-c2c(Cl)cccc2Cl)c1C(=O)N[C@@H]1C(=O)N2[C@@H]1SC(C)(C)[C@@H]2C(=O)O [dicloxacillin] as the compound, how does the Kd (FLJ14583-derived protein; Biacore S51, immobilized FLJ14583-derived protein, analyte 62.5 μM to 0.244 μM, read-out: binding dissociation constant Kd) read?
A: 23 µM

Q: And the “interaction with the protein” value (FLJ14583-derived protein; FLJ14583-derived protein, Biacore S51)?
A: interact specifically

Q: For CC(C)C[C@H](NC(=O)[C@@H](O)[C@H](N)Cc1ccccc1)C(=O)O [ubenimex], which “interaction with the protein” value (FLJ10335-derived protein) is on record?
A: interact specifically

Q: Which “interaction with the protein” value (FLJ12502-derived protein) does the source give for C[C@H]1[C@H](C)CC[C@]2(C(=O)O)CC[C@]3(C)C(=CC[C@@H]4[C@@]5(C)CC[C@H](O)C(C)(C)[C@@H]5CC[C@]43C)[C@H]12 [ursolic acid] here?
A: interact specifically

From patent US8058009B2, “Target protein and target gene in drug designing and screening method” (Reverse Proteomics Research Institute Co., Ltd., priority 2004, dated 2011)
